Measured values from patent publication US10696707B2, “Polyene macrolide derivative” (Shionogi & Co., Ltd., priority 2014, dated 2020).
Values after ≈ are worked out from the molar mass of the structure shown. Like-named read-outs stand apart in the source and are kept apart here.

How the values were obtained:
Type in all cases: cell-based
[1] = tested on: C. albicans ATCC90028; experiment: Antifungal activity test, MIC by broth microdilution (CLSI M27-A3); conditions: C. albicans ATCC90028, broth microdilution, 35° C., 24-48 hours, 100% inhibition
In short: (§1)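 CLSI broth microdilution in RPMI 1640 with 2% glucose, 0.165 mol/L MOPS, pH 7.0; two-fold DMSO dilutions. MIC = lowest concentration giving 100% inhibition versus growth control.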

[2] = tested on: red blood cells (5% RBC suspension); experiment: Test Example 2-2: in vitro hemolytic activity test (upper limit 200 μmol/L); conditions: read-out: hemolysis IC50
Experimental: Nephrotoxic potentials of the compounds of the present invention whose X is —N(R^F)—CO—X^1 and X^1 is the group represented by formula (III) and T is —N(R^a5)— were investigated by in vitro hemolytic activity test under the condition that the upper limit was 200 μmol/L as the required concentration to 50% of hemolysis (IC50).
Defibrinated sterile blood was centrifuged at 700×g for 3 minutes and, and the supernatant was removed for 100% of red blood cells. After the cleaning with physiological saline, the washed blood cells was suspended in the medium (Earle's balanced salt sodium, bicarbonate, 0.1 g/L L-glutamine without phenol red), and was diluted by 5% (5% RBC suspension).
The washed blood was diluted by 5% in water for injection (solution of complete hemolysis), and was used as the indication of optical density for complete hemolysis.
The compounds of the present invention solution in DMSO (several and doubling dilutions starting from 10 mmol/L), DMSO as the negative control, and Amphotericin B as the positive control were used, and each 5 μL of these was added in to a well of V-form 96 well type microplate. Finally, the maximum concentration of the compounds of the present invention solution in DMSO was 200 μmol/L by adding 245 μL of the medium or 5% RBC suspension into the well.
Two hundred fifty μL of the solution of complete hemolysis was added into another well and the microplate was incubated at 37° C. in 5% of CO2 concentration for an hour.
After the incubation, each 100 μL of supernatants in wells was collected by centrifugation of the microplate at 300×g for 5 minutes and was located on a well of flat-form 96 well type microplate. An absorbance of each supernatant was measured at wavelength of 540 nm.
Percent hemolysis was calculated by using the followed equation. The required concentration to 50% of hemolysis (IC50) was calculated based on the percent hemolysis. […] Hemolysis (%)=(CR−VM)×100÷(VL−VR) Where:
CR: Absorbance of 5% RBC suspension incubated with the compounds of the present invention solution in DMSO
VM: Absorbance of medium incubated with the compounds of the present invention solution in DMSO
VL: Absorbance of solution of complete hemolysis
VR: Absorbance of 5% RBC suspension incubated with DMSO
The “>200” in the table means above IC50 value exceeded the upper concentration 200 μmol/L.

[3] = tested on: A. flavus ATCC204304; experiment: Antifungal activity test, MIC by broth microdilution (CLSI M38-A2); conditions: A. flavus ATCC204304, broth microdilution, 35° C., 24-48 hours, 100% inhibition
In short: as §1

[4] = tested on: A. fumigatus ATCC204305; experiment: as above; conditions: A. fumigatus ATCC204305, broth microdilution, 35° C., 24-48 hours, 100% inhibition
In short: as §1

[5] = Erythrocyte, 1 h, Test Example 2-2, hemolysis method 200 (upper concentration 200 μmol/L), 5% RBC suspension, 37° C., one hour
[6] = Test Example 2-2, hemolysis method 200 (upper concentration 200 μmol/L), 5% RBC suspension, 37° C., one hour

| Structure (SMILES) | IC50 [2, 6] | other results |
| --- | --- | --- |
| CC(=O)NNC(=O)N[C@H]1[C@@H]2C[C@@H](O[C@@H]3O[C@H](C)[C@@H](O)[C@H](N)[C@@H]3O)/C=C/C=C/C=C/C=C/C=C/C=C/C=C/[C@H](C)[C@@H](O)[C@@H](C)[C@H](C)OC(=O)C[C@H](O)C[C@H](O)CC[C@@H](O)[C@H](O)C[C@H](O)C[C@](O)(C[C@@H]1O)O2 [I-19] | – | MIC ([1]; Candida albicans, read-out: MIC): 0.25 µg/mL (≈ 0.251 µM); IC50 [2, 5]: > 200 µM; MIC ([3]; Aspergillus flavus, read-out: MIC): 1 µg/mL (≈ 1 µM); MIC ([4]; Aspergillus fumigatus, read-out: MIC): 1 µg/mL (≈ 1 µM) |
| C[C@@H]1[C@H](O)[C@@H](C)/C=C/C=C/C=C/C=C/C=C/C=C/C=C/[C@H](O[C@@H]2O[C@H](C)[C@@H](O)[C@H](N)[C@@H]2O)C[C@@H]2O[C@](O)(C[C@@H](O)C[C@@H](O)[C@H](O)CC[C@@H](O)C[C@@H](O)CC(=O)O[C@H]1C)C[C@H](O)[C@H]2NC(=O)NNC=O [I-43] | > 200 µM | MIC [1]: 0.25 µg/mL (≈ 0.255 µM); MIC [3]: 1 µg/mL (≈ 1.02 µM); MIC [4]: 1 µg/mL (≈ 1.02 µM) |
| C[C@@H]1[C@H](O)[C@@H](C)/C=C/C=C/C=C/C=C/C=C/C=C/C=C/[C@H](O[C@@H]2O[C@H](C)[C@@H](O)[C@H](N)[C@@H]2O)C[C@@H]2O[C@](O)(C[C@@H](O)C[C@@H](O)[C@H](O)CC[C@@H](O)C[C@@H](O)CC(=O)O[C@H]1C)C[C@H](O)[C@H]2NC(=O)NNC(=O)Nc1ccccn1 [I-221] | > 200 µM | – |
| C[C@@H]1[C@H](O)[C@@H](C)/C=C/C=C/C=C/C=C/C=C/C=C/C=C/[C@H](O[C@@H]2O[C@H](C)[C@@H](O)[C@H](N)[C@@H]2O)C[C@@H]2O[C@](O)(C[C@@H](O)C[C@@H](O)[C@H](O)CC[C@@H](O)C[C@@H](O)CC(=O)O[C@H]1C)C[C@H](O)[C@H]2NC(=O)NNC(=O)[C@H](O)CO [I-223] | – | IC50 [2, 5]: > 200 µM |
| C[C@@H]1[C@H](O)[C@@H](C)/C=C/C=C/C=C/C=C/C=C/C=C/C=C/[C@H](O[C@@H]2O[C@H](C)[C@@H](O)[C@H](N)[C@@H]2O)C[C@@H]2O[C@](O)(C[C@@H](O)C[C@@H](O)[C@H](O)CC[C@@H](O)C[C@@H](O)CC(=O)O[C@H]1C)C[C@H](O)[C@H]2NC(=O)NNC(=O)Nc1cccnn1 [I-224] | > 200 µM | – |
| C[C@@H]1[C@H](O)[C@@H](C)/C=C/C=C/C=C/C=C/C=C/C=C/C=C/[C@H](O[C@@H]2O[C@H](C)[C@@H](O)[C@H](N)[C@@H]2O)C[C@@H]2O[C@](O)(C[C@@H](O)C[C@@H](O)[C@H](O)CC[C@@H](O)C[C@@H](O)CC(=O)O[C@H]1C)C[C@H](O)[C@H]2NC(=O)NNC(=O)NC[C@H](O)CO [I-225] | > 200 µM | – |
| CNC(=O)NNC(=O)N[C@H]1[C@@H]2C[C@@H](O[C@@H]3O[C@H](C)[C@@H](O)[C@H](N)[C@@H]3O)/C=C/C=C/C=C/C=C/C=C/C=C/C=C/[C@H](C)[C@@H](O)[C@@H](C)[C@H](C)OC(=O)C[C@H](O)C[C@H](O)CC[C@@H](O)[C@H](O)C[C@H](O)C[C@](O)(C[C@@H]1O)O2 [I-228] | > 200 µM | – |
| C[C@@H]1[C@H](O)[C@@H](C)/C=C/C=C/C=C/C=C/C=C/C=C/C=C/[C@H](O[C@@H]2O[C@H](C)[C@@H](O)[C@H](N)[C@@H]2O)C[C@@H]2O[C@](O)(C[C@@H](O)C[C@@H](O)[C@H](O)CC[C@@H](O)C[C@@H](O)CC(=O)O[C@H]1C)C[C@H](O)[C@H]2NC(=O)NNC(=O)NCC(O)CCl (stereo partly shown) [I-229] | > 200 µM | – |
| C[C@@H]1[C@H](O)[C@@H](C)/C=C/C=C/C=C/C=C/C=C/C=C/C=C/[C@H](O[C@@H]2O[C@H](C)[C@@H](O)[C@H](N)[C@@H]2O)C[C@@H]2O[C@](O)(C[C@@H](O)C[C@@H](O)[C@H](O)CC[C@@H](O)C[C@@H](O)CC(=O)O[C@H]1C)C[C@H](O)[C@H]2NC(=O)NNC(=O)C(C)(C)CO [I-232] | > 200 µM | – |
| C[C@@H]1[C@H](O)[C@@H](C)/C=C/C=C/C=C/C=C/C=C/C=C/C=C/[C@H](O[C@@H]2O[C@H](C)[C@@H](O)[C@H](N)[C@@H]2O)C[C@@H]2O[C@](O)(C[C@@H](O)C[C@@H](O)[C@H](O)CC[C@@H](O)C[C@@H](O)CC(=O)O[C@H]1C)C[C@H](O)[C@H]2NC(=O)NNC(=O)C1CCC(O)CC1 (stereo partly shown) [I-239] | > 200 µM | – |
| C[C@@H]1[C@H](O)[C@@H](C)/C=C/C=C/C=C/C=C/C=C/C=C/C=C/[C@H](O[C@@H]2O[C@H](C)[C@@H](O)[C@H](N)[C@@H]2O)C[C@@H]2O[C@](O)(C[C@@H](O)C[C@@H](O)[C@H](O)CC[C@@H](O)C[C@@H](O)CC(=O)O[C@H]1C)C[C@H](O)[C@H]2NC(=O)NNC(=O)[C@H](O)[C@@H](O)[C@H](O)[C@H](O)CO [I-242] | > 200 µM | – |
| C[C@@H]1[C@H](O)[C@@H](C)/C=C/C=C/C=C/C=C/C=C/C=C/C=C/[C@H](O[C@@H]2O[C@H](C)[C@@H](O)[C@H](N)[C@@H]2O)C[C@@H]2O[C@](O)(C[C@@H](O)C[C@@H](O)[C@H](O)CC[C@@H](O)C[C@@H](O)CC(=O)O[C@H]1C)C[C@H](O)[C@H]2NC(=O)NNC(=O)CO [I-243] | > 200 µM | – |
| C[C@@H]1[C@H](O)[C@@H](C)/C=C/C=C/C=C/C=C/C=C/C=C/C=C/[C@H](O[C@@H]2O[C@H](C)[C@@H](O)[C@H](N)[C@@H]2O)C[C@@H]2O[C@](O)(C[C@@H](O)C[C@@H](O)[C@H](O)CC[C@@H](O)C[C@@H](O)CC(=O)O[C@H]1C)C[C@H](O)[C@H]2NC(=O)NNC(=O)[C@H](O)C(C)(C)CO [I-245] | > 200 µM | – |
| C[C@@H]1[C@H](O)[C@@H](C)/C=C/C=C/C=C/C=C/C=C/C=C/C=C/[C@H](O[C@@H]2O[C@H](C)[C@@H](O)[C@H](N)[C@@H]2O)C[C@@H]2O[C@](O)(C[C@@H](O)C[C@@H](O)[C@H](O)CC[C@@H](O)C[C@@H](O)CC(=O)O[C@H]1C)C[C@H](O)[C@H]2NC(=O)NNS(=O)(=O)c1nnc[nH]1 [I-246] | – | IC50 ([2]; Erythrocyte, 1 h): > 200 µM |
| C[C@@H]1[C@H](O)[C@@H](C)/C=C/C=C/C=C/C=C/C=C/C=C/C=C/[C@H](O[C@@H]2O[C@H](C)[C@@H](O)[C@H](N)[C@@H]2O)C[C@@H]2O[C@](O)(C[C@@H](O)C[C@@H](O)[C@H](O)CC[C@@H](O)C[C@@H](O)CC(=O)O[C@H]1C)C[C@H](O)[C@H]2NC(=O)NNC(=O)C1(CO)CC1 [I-247] | > 200 µM | – |
| C[C@@H]1[C@H](O)[C@@H](C)/C=C/C=C/C=C/C=C/C=C/C=C/C=C/[C@H](O[C@@H]2O[C@H](C)[C@@H](O)[C@H](N)[C@@H]2O)C[C@@H]2O[C@](O)(C[C@@H](O)C[C@@H](O)[C@H](O)CC[C@@H](O)C[C@@H](O)CC(=O)O[C@H]1C)C[C@H](O)[C@H]2NC(=O)NNC(=O)C[C@@H](O)C(=O)O [I-253] | > 200 µM | – |
| C[C@@H]1[C@H](O)[C@@H](C)/C=C/C=C/C=C/C=C/C=C/C=C/C=C/[C@H](O[C@@H]2O[C@H](C)[C@@H](O)[C@H](N)[C@@H]2O)C[C@@H]2O[C@](O)(C[C@@H](O)C[C@@H](O)[C@H](O)CC[C@@H](O)C[C@@H](O)CC(=O)O[C@H]1C)C[C@H](O)[C@H]2NC(=O)NNC(=O)C1(C(N)=O)CC1 [I-256] | > 200 µM | – |
| C[C@@H]1[C@H](O)[C@@H](C)/C=C/C=C/C=C/C=C/C=C/C=C/C=C/[C@H](O[C@@H]2O[C@H](C)[C@@H](O)[C@H](N)[C@@H]2O)C[C@@H]2O[C@](O)(C[C@@H](O)C[C@@H](O)[C@H](O)CC[C@@H](O)C[C@@H](O)CC(=O)O[C@H]1C)C[C@H](O)[C@H]2NC(=O)NNC(=O)C1(O)CC1 [I-257] | > 200 µM | – |
| C[C@@H]1[C@H](O)[C@@H](C)/C=C/C=C/C=C/C=C/C=C/C=C/C=C/[C@H](O[C@@H]2O[C@H](C)[C@@H](O)[C@H](N)[C@@H]2O)C[C@@H]2O[C@](O)(C[C@@H](O)C[C@@H](O)[C@H](O)CC[C@@H](O)C[C@@H](O)CC(=O)O[C@H]1C)C[C@H](O)[C@H]2NC(=O)NNC(=O)C1(S(C)(=O)=O)CC1 [I-263] | – | IC50 ([2]; Erythrocyte, 1 h): > 200 µM |
